Where a name gives a salt, the structure may show the parent alone.
Tests used:
Type in all cases: in vivo
male ICR mouse [1] = assay: Acetic acid-induced writhing test in mouse; details: po, p.o, acetic acid i.p. 1 hour after dosing, writhing counted for 10 minutes, read-out: Writhing Test Suppression of pain response
How it was run: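 Test material given orally at 10 mg/kg to male mice (30–35 g); 1 h later 0.8% acetic acid injected i.p. Writhes counted over 10 min immediately afterwards; analgesia expressed as percent suppression of writhing versus vehicle group.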

male ICR mouse [2] = assay: Head twitch potentiation induced by 5-HTP (5-HTP potentiation test) in mouse; details: po, 0.5 h, p.o, 5-HTP 80 mg/kg + Carbidopa 25 mg/kg i.p. 30 minutes after dosing, head twitches counted for 2 minutes, negative = 5-HT2A antagonist, read-out: 5-HTP Potentiation Increase rate in Head Twitch No.
How it was run: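 Male ICR mice (20-25 g) dosed orally at 30 mg/kg; 30 min later given 5-HTP (80 mg/kg) plus carbidopa (25 mg/kg) i.p. Head twitches counted for 2 min starting 30 min after i.p. dosing; effect expressed as % increase in twitch number versus vehicle group.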

male ICR mouse [3] = assay: Hot plate test in mouse; details: po, p.o, 1 hour after dosing, hot plate 55° C., read-out: Hot Plate Test Increase in latency of avoidance response
How it was run: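 Male ICR mice (25–30 g) dosed orally at 30 mg/kg and placed on a 55° C. hot plate 1 h later. Latency to forefoot or hind-leg avoidance (flinching, licking, jumping) recorded; effect expressed as % increase in latency over vehicle group.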

male ICR mouse [4] = assay: Elevated plus maze (EPM) test in mouse; details: po, p.o, 1 hour after dosing, 5 minutes observation, read-out: Elevated Plus Maze Change index in Open-Arm Time
How it was run: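 Male ICR mice (20–25 g) received test material orally at 10 mg/kg, and open-arm time on the maze was recorded over 5 min starting 1 h after dosing. Value is the change index in open-arm time: (treated − vehicle)/vehicle × 100%.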

Structure (SMILES) | inhibition in vivo at 10 mg/kg (male ICR mouse [1]) [%] | change in vivo at 30 mg/kg (male ICR mouse [2]) [%] | change in vivo at 30 mg/kg (male ICR mouse [3]) [%] | change in vivo at 10 mg/kg (male ICR mouse [4]) [%]
NC(=O)OC(CC(=O)N1CCN(c2ccc(F)cc2F)CC1)c1ccccc1 (centres unmarked) [Example 13, carbamic acid 3-[4-(2,4-difluoro-phenyl)-piperazin-1-yl]-3-oxo-1-phenyl-propyl ester] | 64 | -60 | 21.4 | 12.6
NC(=O)OC(CC(=O)N1CCN(c2ccccc2F)CC1)c1ccccc1 (centres unmarked) [Example 29, carbamic acid 3-[4-(2-fluoro-phenyl)-piperazin-1-yl]-3-oxo-1-phenyl-propyl ester] | 34.5 | 14.3 | 0 | 92.3
NC(=O)OC(CC(=O)N1CCN(c2ccccc2)CC1)c1ccc(Cl)c(Cl)c1 (centres unmarked) [Example 53, carbamic acid 1-(3,4-dichloro-phenyl)-3-oxo-3-(4-phenyl-piperazin-1-yl)-propyl ester] | 28.5 | 50 | 10.6 | -17.7
NC(=O)O[C@@H](CC(=O)N1CCN(c2ccc(Cl)c(Cl)c2)CC1)c1ccccc1 [Example 66, (S)-carbamic acid 3-[4-(3,4-dichloro-phenyl)-piperazin-1-yl]-3-oxo-1-phenyl-propyl ester] | 62.5 | -39.5 | 27.8 | 50.6
COc1ccc(N2CCN(C(=O)CC(OC(=O)N(C)C)c3ccccc3)CC2)cc1 (centres unmarked) [Example 19, dimethyl-carbamic acid 3-[4-(4-methoxy-phenyl)-piperazin-1-yl]-3-oxo-1-phenyl-propyl ester] | 34.2 | 60 | 49.4 | 0
NC(=O)O[C@@H](CC(=O)N1CCN(c2ccc(F)cc2)CC1)c1ccccc1 [Example 79, (S)-carbamic acid 3-[4-(4-fluoro)-phenylpiperazin-1-yl]-3-oxo-1-phenyl-propyl ester] | 40.7 | -30 | 29.3 | -5.1
COc1ccc(N2CCN(C(=O)C[C@@H](OC(N)=O)c3ccccc3)CC2)cc1OC [Example 71, (R)-carbamic acid 3-[4-(3,4-dimethoxy-phenyl)-piperazin-1-yl]-3-oxo-1-phenyl-propyl ester] | 46.5 | 127 | 55.8 | 125
NC(=O)OC(CC(=O)N1CCN(c2cnc3ccccc3n2)CC1)c1ccccc1 (centres unmarked) [Example 22, carbamic acid 3-oxo-1-phenyl-3-(4-quinoxalin-2-yl-piperazin-1-yl)-propyl ester] | 29.4 | 3.9 | 38 | -21.2
NC(=O)OC(CC(=O)N1CCN(c2ccc(O)cc2)CC1)c1ccccc1 (centres unmarked) [Example 18, carbamic acid 3-[4-(4-hydroxy-phenyl)-piperazin-1-yl]-3-oxo-1-phenyl-propyl ester] | 30.6 | -23.4 | 26.4 | 16.1
COc1ccc(N2CCN(C(=O)C[C@@H](OC(N)=O)c3ccccc3)CC2)cc1 [Example 70, (R)-carbamic acid 3-[4-(4-methoxy-phenyl)-piperazin-1-yl]-3-oxo-1-phenyl-propyl ester] | 59.8 | 87.9 | 30.6 | 109
NC(=O)OC(CC(=O)N1CCN(C(c2ccc(F)cc2)c2ccc(F)cc2)CC1)c1ccccc1 (centres unmarked) [Example 21, carbamic acid 3-{4-[bis-(4-fluoro-phenyl)-methyl]-piperazin-1-yl}-3-oxo-1-phenyl-propyl ester] | 32.5 | -7 | 51.4 | 67.5
NC(=O)OC(CC(=O)N1CCN(c2ccccc2)CC1)c1ccc(F)c(F)c1 (centres unmarked) [Example 60, carbamic acid 1-(3,4-difluoro-phenyl)-3-oxo-3-(4-phenyl-piperazin-1-yl)-propyl ester] | 28 | -23.5 | 17.2 | 21.3
COc1ccc(N2CCN(C(=O)CC(OC(N)=O)c3ccc([N+](=O)[O-])cc3)CC2)cc1OC (centres unmarked) [Example 36, carbamic acid 3-[4-(3,4-dimethoxy-phenyl)-piperazin-1-yl]-1-(4-nitro-phenyl)-3-oxo-propyl ester; hydrochloride] | 42 | 93.8 | 20.5 | 35.3
NC(=O)O[C@H](CC(=O)N1CCN(c2ccc(F)c(F)c2)CC1)c1ccccc1 [Example 67, (R)-carbamic acid 3-[4-(3,4-difluoro-phenyl)-piperazin-1-yl]-3-oxo-1-phenyl-propyl ester] | 45.1 | 58.8 | 34.3 | 34.3

Source: patent US8901116B2, “Method for treating pain, anxiety or depression using carbamoyloxy alkanoyl piperazine compound” (SK Biopharmaceuticals Co., Ltd., priority 2007, dated 2014)
